Reference: US9561228B2 (Celgene Avilomics Research, Inc., priority 2013, dated 2017)

How the values were obtained:
[1] = tested on: HT-29 cells (colorectal adenocarcinoma); assay: Inhibition of cancer cell proliferation, HT-29 (CellTiterGlo, 72 hours); type: cell-based; details: Homo sapiens
Protocol: Measurement of Inhibition of Cancer Cell Proliferation (HT-29/Colorectal Adenocarcinoma)
The following protocol used an HT-29 cell line, which cell line is a model for colorectal adenocarcinoma. HT-29 cells were split and 3000 cells in 100 μl of growth medium were added per well of a flat-bottom 96-well plate. A two-fold test compound solution in serum-free RPM1640 was made, starting at 5,000 nM. Then, 3-fold serial dilutions were made across the plate from well 1 to well 11. Well 12, the last well in a row on the plate, was left as untreated control. 100 μl compound solutions were then transferred to the wells, so the total volume of media was 200 μl per well. Plates were returned to a 37° C. incubator, and the cells were cultured for 72 hours. To measure cell proliferation after 72 hours, media was discarded from the plates, 50 μl/well of fresh medium was added, and 50 μl CellTiterGlo solution was added (Promega Cat#G7573). The plate was covered with a dark lid and incubated for 10 min. A white sealing tape was applied to the bottom of the plate, and the plate was read in a luminescence plate reader. […] A 2-fold serial dilution was used to generate 8 cell densities from 50,000-390 cells per well in 50 μl media. 50 μl CellTiterGlo was added per well, and the plate was read in a luminescence plate reader after 10 min. The reading was plotted vs. cell number to generate a standard curve and the equation of the curve fit. The compound-treated sample luminescence readings were converted to cell numbers using the curve-fit equation. The percent of inhibition, using untreated control as 100% growth, was then calculated. GI50 was then calculated by GraphPad Prism.

MEK1 activated ERK1 = target: T1, MEK1 activated ERK1 (Homo sapiens, UniProt P27361); assay: Omnia continuous-read kinase assay for potency against MEK1 activated ERK1; type: biochemical; details: MEK1 activated ERK1, ATP at KM; read-out: ERK1 Omnia WT ATP KM IC50
T1 construct: purchased Millipore (Billerica, Mass.) 14-439-K
Procedure, shortened: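 Apparent IC50 came from initial reaction slopes (RFU vs time) plotted against log inhibitor with a variable-slope fit. Reactions were started with ERK1 (4 nM final) added to 50 μM ATP, roughly at its appKM, and 10 μM Sox-conjugated ST17 peptide in 20 mM Tris pH 7.5, 5 mM MgCl2. Fluorescence was monitored every 71 seconds.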

[2] = tested on: ERK1/2 phosphorylation of p90RSK in HT29 cells; assay: pRSK MSD Assay in HT29 cells; type: cell-based; details: Homo sapiens, HT-29, read-out: ERK1/ERK2 PRSK MSD HT29 EC50
Procedure, shortened: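 Serum-starved HT29 cells (0.1% FBS overnight) treated with test compound for 120 min at 37° C, then lysed with protease and phosphatase inhibitors. Phospho-p90RSK quantified by MSD sandwich immunoassay: RSK capture antibody, phospho-RSK detection antibody plus Sulfo-tagged antibody, electrochemiluminescence read.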

T1 sequence (P27361 whole entry): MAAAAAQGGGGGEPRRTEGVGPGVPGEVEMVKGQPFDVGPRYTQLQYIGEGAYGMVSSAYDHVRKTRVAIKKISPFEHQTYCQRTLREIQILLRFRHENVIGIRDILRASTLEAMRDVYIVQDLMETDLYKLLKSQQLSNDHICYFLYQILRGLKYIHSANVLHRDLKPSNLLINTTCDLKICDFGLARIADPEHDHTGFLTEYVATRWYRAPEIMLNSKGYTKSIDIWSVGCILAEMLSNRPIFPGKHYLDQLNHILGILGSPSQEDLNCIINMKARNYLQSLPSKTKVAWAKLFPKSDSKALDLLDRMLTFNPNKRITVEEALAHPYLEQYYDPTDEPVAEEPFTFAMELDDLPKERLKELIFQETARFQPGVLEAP

Row | GI50 [1] | IC50 (MEK1 activated ERK1) | EC50 [2] | SMILES
1 | < 100 nM | < 100 nM | 101 to 500 nM | C=CC(=O)Nc1ccccc1Nc1nc(N[C@@H]2CCC[C@H](C(=O)NOCCO)C2)ncc1Cl (racemic) [Compound I-103, Rac-3-((4-((2-acrylamidophenyl)amino)-5-chloropyrimidin-2-yl)amino)-N-(2-hydroxyethoxy)-cis-cyclohexanecarboxamide]
2 | > 1000 nM | > 1000 nM | – | C=CC(=O)N[C@@H]1CCCC[C@H]1Nc1nc(Nc2cc(C(=O)NOC)ccc2C)ncc1C(N)=O (racemic) [Compound I-256, Rac-trans-4-((2-acrylamidocyclohexyl)amino)-2-((5-(methoxycarbamoyl)-2-methylphenyl)amino)pyrimidine-5-carboxamide]
3 | > 1000 nM | 101 to 500 nM | > 1000 nM | C=CC(=O)Nc1ccccc1Nc1nc(Nc2ccc(N(CCCN)C(C)=O)cc2OC)ncc1Cl [Compound I-167, N-(2-((2-((4-(N-(3-aminopropyl)acetamido)-2-methoxyphenyl)amino)-5-chloropyrimidin-4-yl)amino)phenyl)acrylamide]
4 | 101 to 500 nM | 101 to 500 nM | 101 to 500 nM | C=CC(=O)Nc1ccccc1Nc1nc(NC2CCN(C(C)=O)CC2)ncc1C(F)(F)F [Compound I-12, N-(2-((2-((1-acetylpiperidin-4-yl)amino)-5-(trifluoromethyl)pyrimidin-4-yl)amino)phenyl)acrylamide]
5 | > 1000 nM | 101 to 500 nM | > 1000 nM | C=CC(=O)Nc1ccccc1Oc1nc(Nc2ccc(N3CCC[C@@H]3CO)cc2OC)ncc1C(N)=O [Compound I-263, (R)-4-(2-acrylamidophenoxy)-2-((4-(2-(hydroxymethyl)pyrrolidin-1-yl)-2-methoxyphenyl)amino)pyrimidine-5-carboxamide]
6 | 101 to 500 nM | – | < 100 nM | C=CC(=O)Nc1ccccc1Nc1nc(N[C@H]2CCCN(C=O)C2)ncc1C(F)(F)F [Compound I-9, (S)—N-(2-((2-((1-formylpiperidin-3-yl)amino)-5-(trifluoromethyl)pyrimidin-4-yl)amino)phenyl)acrylamide]
7 | 101 to 500 nM | 101 to 500 nM | 101 to 500 nM | C=CC(=O)Nc1cc(OC)ccc1Nc1nc(Nc2ccc3c(c2)CC(=O)N3CC)ncc1Cl [Compound I-166, N-(2-((5-chloro-2-((1-ethyl-2-oxoindolin-5-yl)amino)pyrimidin-4-yl)amino)-5-methoxyphenyl)acrylamide]
8 | 501 to 999 nM | 101 to 500 nM | 501 to 999 nM | C=CC(=O)Nc1ccccc1Nc1nc(N[C@H]2CCCNC2)ncc1Cl [Compound I-126, (S)—N-(2-((5-chloro-2-(piperidin-3-ylamino)pyrimidin-4-yl)amino)phenyl)acrylamide]
9 | > 1000 nM | 101 to 500 nM | > 1000 nM | C=CC(=O)Nc1cc(OC)ccc1Nc1nc(Nc2ccc(N(CC)C(C)=O)cc2C#N)ncc1Cl [Compound I-164, N-(2-((5-chloro-2-((2-cyano-4-(N-ethylacetamido)phenyl)amino)pyrimidin-4-yl)amino)-5-methoxyphenyl)acrylamide]
10 | 101 to 500 nM | < 100 nM | < 100 nM | C=CC(=O)Nc1cc(F)ccc1Nc1nc(N[C@@H]2CCC[C@H](C(N)=O)C2)ncc1Cl (racemic) [Compound I-112, Rac-cis-3-((4-((2-acrylamido-4-fluorophenyl)amino)-5-chloropyrimidin-2-yl)amino)cyclohexanecarboxamide]
11 | 101 to 500 nM | – | 101 to 500 nM | C=CC(=O)Nc1ccccc1Nc1nc(Nc2cc(C(N)=O)ccc2CC)ncc1Cl [Compound I-193, 3-((4-((2-acrylamidophenyl)amino)-5-chloropyrimidin-2-yl)amino)-4-ethylbenzamide]
12 | > 1000 nM | 101 to 500 nM | 501 to 999 nM | C=CC(=O)Nc1ccccc1Nc1nc(Nc2ccc(NC(=O)CO)cc2OC)ncc1Cl [Compound I-186, N-(2-((5-chloro-2-((4-(2-hydroxyacetamido)-2-methoxyphenyl)amino)pyrimidin-4-yl)amino)phenyl)acrylamide]
13 | 101 to 500 nM | – | < 100 nM | C=CC(=O)Nc1ccccc1Nc1nc(NC2CCN(C=O)CC2)ncc1Cl [Compound I-124, N-(2-((5-chloro-2-((1-formylpiperidin-4-yl)amino)pyrimidin-4-yl)amino)phenyl)acrylamide]
14 | 101 to 500 nM | 101 to 500 nM | 501 to 999 nM | C=CC(=O)Nc1ccccc1Nc1nc(Nc2cc(C(=O)NOCCO)ccc2OC)ncc1C(F)(F)F [Compound I-74, 3-((4-((2-Acrylamidophenyl)amino)-5-(trifluoromethyl)pyrimidin-2-yl)amino)-N-(2-hydroxyethoxy)-4-methoxybenzamide]
15 | 101 to 500 nM | – | 101 to 500 nM | C=CC(=O)Nc1ccccc1Nc1nc(NC2CCN(S(C)(=O)=O)CC2)ncc1C(F)(F)F [Compound I-13, N-(2-((2-((1-(methylsulfonyl)piperidin-4-yl)amino)-5-(trifluoromethyl)pyrimidin-4-yl)amino)phenyl)acrylamide]
16 | 101 to 500 nM | – | 101 to 500 nM | C=CC(=O)Nc1ccccc1Nc1nc(N[C@H]2CCCN(S(C)(=O)=O)C2)ncc1Cl [Compound I-125, (S)—N-(2-((5-chloro-2-((1-(methylsulfonyl)piperidin-3-yl)amino)pyrimidin-4-yl)amino)phenyl)acrylamide]
17 | 101 to 500 nM | – | < 100 nM | C=CC(=O)Nc1cc(F)ccc1Nc1nc(Nc2cc(C(N)=O)ccc2OC)ncc1Cl [Compound I-208]
18 | 101 to 500 nM | – | < 100 nM | C=CC(=O)Nc1ccccc1Nc1nc(Nc2cc(C(N)=O)ccc2C#N)ncc1C(F)(F)F [Compound I-71, 3-((4-((2-Acrylamidophenyl)amino)-5-(trifluoromethyl)pyrimidin-2-yl)amino)-4-cyanobenzamide]
19 | < 100 nM | – | 101 to 500 nM | C=CC(=O)Nc1ccccc1Nc1nc(Nc2cc(C(=O)NOC)ccc2C)ncc1C(F)(F)F [Compound I-69, 3-((4-((2-Acrylamidophenyl)amino)-5-(trifluoromethyl)pyrimidin-2-yl)amino)-N-methoxy-4-methylbenzamide]
20 | > 1000 nM | – | > 1000 nM | C=CC(=O)Nc1ccccc1Nc1nc(Nc2ccc(OCCCNC(=O)CCCC(=O)NCCCOCCOCCOCCCNC(=O)CCCC[C@H]3SC[C@H]4NC(=O)N[C@H]43)cc2OC)ncc1Cl [Compound I-302, N^1-(3-(4-((4-((2-acrylamidophenyl)amino)-5-chloropyrimidin-2-yl)amino)-3-methoxyphenoxy)propyl)-N^5-(15-oxo-19-((3aR,4R,6aS)-2-oxohexahydro-1H-thieno[3,4-d]imidazol-4-yl)-4,7,10-trioxa-14-azanonadecyl)glutaramide]
21 | > 1000 nM | 101 to 500 nM | – | C=CC(=O)Nc1ccccc1Nc1nc(Nc2cc(C(=O)NOC)ccc2C#N)ncc1C(F)(F)F [Compound I-72, 3-((4-((2-Acrylamidophenyl)amino)-5-(trifluoromethyl)pyrimidin-2-yl)amino)-4-cyano-N-methoxybenzamide]
22 | > 1000 nM | 101 to 500 nM | – | C=CC(=O)Nc1ccccc1Oc1nc(Nc2ccc(N3CCC[C@@H]3C(N)=O)cc2OC)ncc1C(N)=O [Compound I-266, (R)-4-(2-acrylamidophenoxy)-2-((4-(2-carbamoylpyrrolidin-1-yl)-2-methoxyphenyl)amino)pyrimidine-5-carboxamide]
23 | 501 to 999 nM | – | < 100 nM | C=CC(=O)Nc1cc(F)ccc1Nc1nc(Nc2ccc(F)cc2C#N)ncc1Cl [Compound I-221, N-(2-((5-chloro-2-((2-cyano-4-fluorophenyl)amino)pyrimidin-4-yl)amino)-5-fluorophenyl)acrylamide]
24 | > 1000 nM | > 1000 nM | – | C=CC(=O)N[C@@H]1CCCC[C@H]1Nc1nc(Nc2cc(C(N)=O)ccc2C)ncc1C(N)=O (racemic) [Compound I-255, Rac-trans-4-((2-acrylamidocyclohexyl)amino)-2-((5-carbamoyl-2-methylphenyl)amino)pyrimidine-5-carboxamide]
25 | 101 to 500 nM | – | 501 to 999 nM | C=CC(=O)Nc1ccccc1Nc1nc(N[C@@H]2CCC[C@H](C(N)=O)C2)ncc1Cl [Compound I-119, (1S,3R)-3-((4-((2-acrylamidophenyl)amino)-5-chloropyrimidin-2-yl)amino)cyclohexanecarboxamide]
